≈ marks a conversion by molar mass, not a printed value. Like-named read-outs stand apart in the source and are kept apart here.
Key:
Type in all cases: cell-based
[1] = tested on: Aspergillus niger (IMI 1745); test: MIC, Aspergillus niger; details: for MIC: read-out: Minimum inhibitory concentrations (MICs), A. niger
Experimental: (§1) The effects of compounds of the invention in relation to inhibiting the growth of various microorganisms was determined using methods known to those skilled in the art, for example in vitro methods as described in J. Med. Chem. 47, 2133-2156 (2004) and in vivo methods as described in J. Med. Microbiol. 46, 208-213 (1997), the disclosures of which documents are hereby incorporated by reference. In particular, minimum inhibitory concentrations (MICs) against microorganisms (e.g. S. Aureus, Streptococcus faecalis, Aspergillus niger, Candida albicans or Mycobacterium fortuitum) for compounds of the invention may be measured using procedures such as those described in A. J. Drummond and […] development of microbiological methods for phytochemical screening” Recent Res. Devel. […] The test wells on each 96 well microtitre plate were initially inoculated with culture medium (100 μL) using Mueller-Hinton Broth for antibacterial assays and Sabouraud Broth for antifungal assays. A solution of each test sample (100 μL) was added to one row of each plate and a series of doubling dilutions made for successive rows. Incubation was at 37° C. for antibacterial assay and 25° C. for antifungal assay. […] From the observed pattern of colour, the MIC was determined. All tests included sterility and growth controls.

[2] = tested on: Staphylococcus aureus Strain 2 (NCTC 6571); test: MIC, Staphylococcus aureus Strain 2; details: for MIC: read-out: Minimum inhibitory concentrations (MICs), S. aureus 2
Experimental: as §1

[3] = tested on: Streptococcus faecalis (NCTC 775); test: MIC, Streptococcus faecalis; details: for MIC: read-out: Minimum inhibitory concentrations (MICs), St. faecalis
Experimental: as §1

[4] = tested on: Staphylococcus aureus Strain 1 (BSAC04(1)) (Clinical isolate from Glasgow Royal Infirmary); test: MIC, Staphylococcus aureus Strain 1; details: Staphylococcus aureus, read-out: Minimum inhibitory concentrations (MICs), S aureus 1
Experimental: The effects of compounds of the invention in relation to inhibiting the growth of various microorganisms was determined using methods known to those skilled in the art, for example in vitro methods as described in J. Med. Chem. 47, 2133-2156 (2004) and in vivo methods as described in J. Med. Microbiol. 46, 208-213 (1997), the disclosures of which documents are hereby incorporated by reference.
In particular, minimum inhibitory concentrations (MICs) against microorganisms (e.g. S. Aureus, Streptococcus faecalis, Aspergillus niger, Candida albicans or Mycobacterium fortuitum) for compounds of the invention may be measured using procedures such as those described in A. J. Drummond and R. D. Waigh “The development of microbiological methods for phytochemical screening” Recent Res. Devel. Phytochem. 4, 143-152 (2000), the disclosures of which document are hereby incorporated by reference.
Sample dilutions were typically prepared by dissolving the test sample (2 mg) in sterile water (10 mL) to provide a working concentration of 200 μg/ml. The test wells on each 96 well microtitre plate were initially inoculated with culture medium (100 μL) using Mueller-Hinton Broth for antibacterial assays and Sabouraud Broth for antifungal assays. A solution of each test sample (100 μL) was added to one row of each plate and a series of doubling dilutions made for successive rows. Incubation was at 37° C. for antibacterial assay and 25° C. for antifungal assay. […] From the observed pattern of colour, the MIC was determined. All tests included sterility and growth controls.

[5] = tested on: Candida albicans (NCPF3179); test: MIC, Candida albicans; details: for MIC: read-out: Minimum inhibitory concentrations (MICs), C. albicans
Experimental: as §1

[6] = Aspergillus niger, value in parentheses, na = not active
[7] = Aspergillus niger, value outside parentheses
[8] = Staphylococcus aureus, NCTC6571, value in parentheses, na = not active
[9] = Staphylococcus aureus, NCTC6571, value outside parentheses
[10] = Enterococcus faecalis, NCTC775, value in parentheses, na = not active
[11] = Enterococcus faecalis, NCTC775, value outside parentheses
[12] = value in parentheses, na = not active
[13] = Candida albicans, NCPF3179, value in parentheses, na = not active
[14] = Candida albicans, NCPF3179, value outside parentheses

Row | SMILES | MIC [1, 6] | MIC [1, 7] | MIC [2, 8] | MIC [2, 9] | MIC [3, 10] | MIC [3, 11] | MIC [4, 12] | MIC ([4]; value outside parentheses) | also measured
1 | COc1cccc(/C=C/c2ccc(C(=O)Nc3cc(C(=O)Nc4cc(C(=O)NCCN5CCOCC5)n(C)c4)n(C)c3)cc2)c1 [Example 1, 4-({[4-({4-[(E)-2-(3-Methoxyphenyl)ethenyl]benzoyl}amino)-1-methyl-1H-pyrrol-2-yl]carbonyl}amino)-1-methyl-N-[2-(4-morpholinyl)ethyl]-1H-pyrrole-2-carboxamide] | 100 µg/mL | 138 µM | 8 µg/mL | 11 µM | 50 µg/mL | 69 µM | 2 µg/mL | 2.7 µM | 
2 | Cn1cccc1/C=C/c1ccc(C(=O)Nc2cc(C(=O)Nc3cc(C(=O)NCCN4CCOCC4)n(C)c3)n(C)c2)cc1 [Example 3, 1-Methyl-N-[1-methyl-5-({[2-(4-morpholinyl)ethyl]amino}carbonyl)-1H-pyrrol-3-yl]-4-({4-[(E)-2-(1-methyl-1H-pyrrol-2-yl)ethenyl]benzoyl}amino)-1H-pyrrole-2-carboxamide] | 100 µg/mL | 143 µM | 16 µg/mL | 22.9 µM | 12.5 µg/mL | 16.4 µM | 4 µg/mL | 5.7 µM | 
3 | COc1cccc(/C=C/c2cccc(C(=O)Nc3cc(C(=O)Nc4cc(C(=O)NCCCN(C)C)n(C)c4)n(C)c3)c2)c1 [Example 6] |  |  |  |  |  |  |  |  | Minimum inhibitory concentrations (MICs), A. niger [1, 12]: 100 µg/mL (≈ 172 µM); MIC ([1]; value outside parentheses): 143 µM; Minimum inhibitory concentrations (MICs), S. aureus 2 [2, 12]: 50 µg/mL (≈ 85.8 µM); MIC ([2]; value outside parentheses): 72 µM; Minimum inhibitory concentrations (MICs), St. faecalis [3, 12]: 50 µg/mL (≈ 85.8 µM); MIC ([3]; value outside parentheses): 72 µM
4 | Cn1cc(NC(=O)c2cc(NC(=O)c3csc(/C=C/c4ccc5ccccc5n4)n3)cn2C)cc1C(=O)NCCN1CCOCC1 [Example 12, N-[1-Methyl-5-({[1-methyl-5-({[2-(4-morpholinyl)ethyl]amino}carbonyl)-1H-pyrrol-3-yl]amino}carbonyl)-1H-pyrrol-3-yl]-2-[(E)-2-(2-quinolinyl)ethenyl]-1,3-thiazole-4-carboxamide] |  |  |  |  |  |  | 8 µg/mL | 10 µM | 
5 | Cn1cc(NC(=O)c2cc(NC(=O)c3ccc(/C=C/c4ccc5ccccc5c4)cc3)cn2C)cc1C(=O)NCCN1CCOCC1 [Example 13, 1-Methyl-N-[1-methyl-5-({[2-(4-morpholinyl)ethyl]amino}carbonyl)-1H-pyrrol-3-yl]-4-({4-[(E)-2-(2-naphthyl)ethenyl]benzoyl}amino)-1H-pyrrole-2-carboxamide] | 100 µg/mL | 136 µM | 50 µg/mL | 68 µM | 100 µg/mL | 136 µM |  |  | 
6 | Cn1cc(NC(=O)c2cc(NC(=O)c3ccc(/C=C/c4cc5ccccc5nc4On4nnc5ccccc54)cc3)cn2C)cc1C(=O)NCCN1CCOCC1 [Example 14, 4-[(4-{(E)-2-[2-(1H-1,23-Benzotriazol-1-yloxy)-3-quinolinyl]ethenyl}benzoyl)-amino]-1-methyl-N-[1-methyl-5-({[2-(4-morpholinyl)ethyl]amino}carbonyl)-1H-pyrrol-3-yl]-1H-pyrrole-2-carboxamide] |  |  |  |  |  |  |  |  | Minimum inhibitory concentrations (MICs), A. niger [1, 12]: 50 µg/mL (≈ 65.4 µM); MIC ([1]; value outside parentheses): 57 µM; Minimum inhibitory concentrations (MICs), C. albicans [5, 12]: 100 µg/mL (≈ 131 µM); MIC ([5]; value outside parentheses): 114 µM; Minimum inhibitory concentrations (MICs), S. aureus 2 [2, 12]: 50 µg/mL (≈ 65.4 µM); MIC ([2]; value outside parentheses): 57 µM; Minimum inhibitory concentrations (MICs), St. faecalis [3, 12]: 100 µg/mL (≈ 131 µM); MIC ([3]; value outside parentheses): 114 µM
7 | Cn1cc(NC(=O)c2cc(NC(=O)c3ccc(/C=C/c4ccc5ccccc5n4)cc3)cn2C)cc1C(=O)NCCN1CCOCC1 [Example 15] |  |  |  |  |  |  |  |  | Minimum inhibitory concentrations (MICs), A. niger [1, 12]: 100 µg/mL (≈ 158 µM); MIC ([1]; value outside parentheses): 134 µM; Minimum inhibitory concentrations (MICs), C. albicans [5, 12]: 100 µg/mL (≈ 158 µM); MIC ([5]; value outside parentheses): 134 µM; Minimum inhibitory concentrations (MICs), S. aureus 2 [2, 12]: 100 µg/mL (≈ 158 µM); MIC ([2]; value outside parentheses): 134 µM
8 | CC(C)CCc1sc(NC(=O)c2cc(NC(=O)c3ccc(/C=C/c4ccc5ccccc5n4)cc3)cn2C)nc1C(=O)NCCN1CCOCC1 [Example 19, 5-Isopentyl-2-({[1-methyl-4-({4-[(E)-2-(2-quinolinyl)ethenyl]benzoyl}amino)-1H-pyrrol-2-yl]carbonyl}amino)-N-[2-(4-morpholinyl)ethyl]-1,3-thiazole-4-carboxamide] | 100 µg/mL | 122 µM |  |  |  |  |  |  | 

Further lines, with some results ahead:

Row | MIC [1, 6] | MIC [1, 7] | MIC [2, 8] | MIC [2, 9] | MIC [3, 10] | MIC [3, 11] | MIC [4, 12] | MIC ([4]; value outside parentheses) | SMILES | also measured
9 | 50 µg/mL | 72 µM | 12.5 µg/mL | 17.9 µM |  |  | 6.25 µg/mL | 8.9 µM | COc1cccc(/C=C/c2ccc(C(=O)Nc3cc(C(=O)Nc4cc(C(=O)NCCCN(C)C)n(C)c4)n(C)c3)cc2)c1 [Example 4, N-[5-({[3-(Dimethylamino)propyl]amino}carbonyl)-1-methyl-1H-pyrrol-3-yl]-4-({4-[(E)-2-(3-methoxyphenyl)ethenyl]benzoyl}amino)-1-methyl-1H-pyrrole-2-carboxamide] | MIC [5, 13]: 100 µg/mL; MIC [5, 14]: 143 µM
10 | 50 µg/mL | 70 µM | 25 µg/mL | 35 µM | 50 µg/mL | 70 µM | 25 µg/mL | 35 µM | CN(C)CCCNC(=O)c1cc(NC(=O)c2cc(NC(=O)c3ccc(/C=C/c4cnc5ccccc5c4)cc3)cn2C)cn1C [Example 5, N-[5-({[3-(Dimethylamino)propyl]amino}carbonyl)-1-methyl-1H-pyrrol-3-yl]-1-methyl-4-({4-[(E)-2-(3-quinolinyl)ethenyl]benzoyl}amino)-1H-pyrrole-2-carboxamide] | 
11 |  |  | 50 µg/mL | 75 µM | 25 µg/mL | 37 µM | 16 µg/mL | 24 µM | CN(C)CCCNC(=O)c1cc(NC(=O)c2cc(NC(=O)c3ccc(/C=C/c4ccncc4)cc3)cn2C)cn1C [Example 7, N-[5-({[3-(Dimethylamino)propyl]amino}carbonyl)-1-methyl-1H-pyrrol-3-yl]-1-methyl-4-({4-[(E)-2-(4-pyridinyl)ethenyl]benzoyl}amino)-1H-pyrrole-2-carboxamide] | 
12 | 100 µg/mL | 140 µM | 50 µg/mL | 70 µM | 50 µg/mL | 70 µM |  |  | CN(C)CCCNC(=O)c1cc(NC(=O)c2cc(NC(=O)c3cc(/C=C/c4ccc([N+](=O)[O-])cc4)cn3C)cn2C)cn1C [Example 8, N-[5-({[5-({[3-(Dimethylamino)propyl]amino}carbonyl)-1-methyl-1H-pyrrol-3-yl]amino}carbonyl)-1-methyl-1H-pyrrol-3-yl]-1-methyl-4-[(E)-2-(4-nitrophenyl)-ethenyl]-1H-pyrrole-2-carboxamide] | 
13 |  |  |  |  |  |  | 4 µg/mL | 4.6 µM | Cn1cc(NC(=O)c2cc(NC(=O)c3cc(/C=C/c4ccc5ccccc5n4)cn3C)cn2C)cc1C(=O)NCCN1CCOCC1 [Example 11, 1-Methyl-N-[1-methyl-5-({[2-(4-morpholinyl)ethyl]amino}carbonyl)-1H-pyrrol-3-yl]-4-[({1-methyl-4-[(E)-2-(2-quinolinyl)ethenyl]-1H-pyrrol-2-yl}carbonyl)-amino]-1H-pyrrole-2-carboxamide] | MIC [5, 13]: 100 µg/mL; MIC [5, 14]: 134 µM
